In patent US8153658B2, “Piperidine derivative or salt thereof” (Astellas Pharma, Inc., priority 2006, dated 2012):
pEC50, pIC50: −log10 of the molar value. Counter-ions that a name gives are not always drawn. Like-named read-outs stand apart in the source and are kept apart here.

Experiments:
[1] = Measurement of rat plasma calcium concentration; format: in vivo; conditions: read-out: Rat plasma calcium concentration reducing ratio (%) 2 hours after administration (3 mg/kg)
Description: Test 2. Measurement of Rat Plasma Calcium Concentration and Plasma PTH Concentration
The compounds of the present invention were administered to rats, and their influences upon the plasma calcium concentration and the plasma PTH concentration were examined. The test was carried out by single oral administration of the compounds of the present invention and the control compounds to 5 to 6 normal male rats, or male rats with renal failure, respectively As a vehicle group, 0.5% of a methyl cellulose (MC) solution was administered at a dose of 5 ml/kg. As a reference compound, cinacalcet was dissolved in the MC solution and administered at a dose of 3 mg/kg. Each of the compounds of the present invention was dissolved or suspended in the MC solution, and administered at a dose of 1, 3 or 10 mg/kg.
Blood samples were collected from the orbital venous plexus under ether anesthesia before the administration and 2 hours, 4 hours, or 8 hours in some cases, after the administration, and the plasma calcium concentration was measured using Calcium E-Test Wako (manufactured by Wako Pure Chemical Industries), and the plasma PTH concentration was measured using a Rat Intact PTH ELISA Kit (manufactured by Immutopics).

[2] = biological target: T1, human CaSR (Homo sapiens, UniProt P41180); experiment: Human calcium sensing receptor (CaSR) agonism test (Fluo-3 / FLIPR); format: cell-based; conditions: HEK 293 cell stably expressing human CaSR; 0.5 mM Ca2+; 2 mM Ca2+ group = 100%; read-out: EC50 (compound concentration showing 50% human CaSR agonistic activity)
T1 construct: a human CaSR open reading frame (ORF) was contained in the pcDNA3.1/Zeo(+) vector; expressed in transfected cells
T1 sequence (P41180 20-1078): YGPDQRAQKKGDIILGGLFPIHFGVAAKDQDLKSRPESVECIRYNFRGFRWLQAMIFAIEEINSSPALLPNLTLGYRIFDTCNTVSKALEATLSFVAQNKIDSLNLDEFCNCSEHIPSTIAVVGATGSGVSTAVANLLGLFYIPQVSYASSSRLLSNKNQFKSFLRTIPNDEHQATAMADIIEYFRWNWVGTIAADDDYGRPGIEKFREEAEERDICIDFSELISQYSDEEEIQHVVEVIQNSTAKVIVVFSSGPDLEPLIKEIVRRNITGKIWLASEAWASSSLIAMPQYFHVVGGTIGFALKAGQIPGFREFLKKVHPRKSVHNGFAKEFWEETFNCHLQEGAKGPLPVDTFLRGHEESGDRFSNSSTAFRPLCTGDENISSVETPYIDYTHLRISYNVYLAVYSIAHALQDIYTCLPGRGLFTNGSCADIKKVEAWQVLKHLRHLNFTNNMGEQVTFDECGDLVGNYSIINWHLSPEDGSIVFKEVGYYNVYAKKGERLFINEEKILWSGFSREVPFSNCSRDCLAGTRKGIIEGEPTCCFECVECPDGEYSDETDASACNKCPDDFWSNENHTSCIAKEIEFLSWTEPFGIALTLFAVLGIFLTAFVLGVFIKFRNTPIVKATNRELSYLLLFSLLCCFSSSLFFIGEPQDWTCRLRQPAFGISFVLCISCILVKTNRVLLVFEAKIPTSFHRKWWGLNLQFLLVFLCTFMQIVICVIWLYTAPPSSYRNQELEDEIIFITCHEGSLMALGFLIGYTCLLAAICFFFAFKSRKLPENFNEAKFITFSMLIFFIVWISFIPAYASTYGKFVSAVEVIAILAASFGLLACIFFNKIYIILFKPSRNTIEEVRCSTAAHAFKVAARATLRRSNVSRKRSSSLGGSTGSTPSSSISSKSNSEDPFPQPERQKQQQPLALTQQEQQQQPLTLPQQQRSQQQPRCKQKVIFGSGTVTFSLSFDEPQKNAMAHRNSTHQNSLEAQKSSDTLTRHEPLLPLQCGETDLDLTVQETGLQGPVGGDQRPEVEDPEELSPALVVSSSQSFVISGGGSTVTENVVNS
From the text: Test 1. Human calcium sensing receptor (CaSR) agonism test
1) Preparation of Human CaSR Expression Vector
A DNA fragment coding for human CaSR was cloned in the standard method.
Illustratively, using 203 to 2387 of NM_000388 as a DNA fragment D4, and 2210 to 3633 as a DNA fragment B2, they were amplified using a human kidney cDNA (manufactured by Invitrogen) as the template and using a DNA polymerase (a registered trade name: Pyrobest, manufactured by Takara Bio), and respectively cloned into a pCR2.1 vector using a pCR2.1-Topo vector (manufactured by Invitrogen). Next, the DNA fragments prepared by digesting the pCR2.1-D4 with SpeI and XbaI were inserted into the same sites of pcDNA3.1/Zeo(+) vector. Successively, the fragments prepared by digesting pCR2.1-B2 with SacI and XbaI were inserted into the SacI and XbaI sites of previously prepared pcDNA3.1/Zeo(+)-D4(SpeI-XbaI), thereby obtaining a human CaSR expression vector pcDNA3.1/Zeo(+)-hCaSR in which a human CaSR open reading frame (ORF) was contained in the pcDNA3.1/Zeo(+) vector.
2) Preparation of Human CaSR Expression Cell
The human CaSR expression vector was transferred into a HEK 293 cell using a transfection reagent (registered trademark: FuGene 6, manufactured by Roche Diagnostics). After the gene transfer, this was cultured in a DMEM (manufactured by Invitrogen) medium containing 40 μg/ml Zeocin (registered trademark, manufactured by Invitrogen) and a 10% fetal bovine serum at 37° C. for 2 weeks in the presence of 5% CO2, thereby obtaining Zeocin-resistant clones. A human CaSR stably expressing HEK 293 clone was obtained from these clones by selection using the responsiveness to extracellular Ca^2+ as an index.
3) Human CaSR Agonism Test
The HEK 293 cell stably expressing human CaSR was inoculated into a poly-D-lysine-coated black clear bottom 96 well plate (manufactured by BD Biosciences). Hanks' balanced salt solution (HBSS) (Ca^2+ (−), Mg^2+ (−), manufactured by Invitrogen) containing a 20 mM HEPES (2-[4-(2-hydroxyethyl)-1-piperazinyl]ethanesulfonic acid) buffer (pH 7.4), 2.5 mM of probenecid (manufactured by Sigma), and 0.1% of bovine serum albumin was prepared as a washing buffer. After the inoculation and the subsequent overnight culturing, the medium was discarded, the washing buffer supplemented with 1 mM CaCl2 and 10 μM Fluo-3 AM (trade name, manufactured by DOJINDO) was added thereto in 100 μl per well portions, and then the incubation was carried out at 37° C. for 1 hour in the presence of 5% CO2. This was washed twice with 200 μl of the washing buffer, replaced by 100 μl of the washing buffer supplemented with 0.5 mM CaCl2 and allowed to stand still for 10 minutes, and then the responsiveness to each compound to be evaluated was detected using a plate reader for fluorometry image analysis use (registered trademark: FLIPR, manufactured by Molecular Devices). In this connection, the compound to be evaluated was used by optionally diluting with the washing buffer supplemented with 0.5 mM Ca^2+.
The human CaSR agonistic activity strength of each compound to be evaluated was calculated by defining the solvent group as 0% and the 2 mM of Ca^2+ in the final concentration group as 100%, and the compound concentration showing 50% activity (EC50) was calculated from a concentration-activity curve by the method of least squares.

[3] = biological target: CYP2D6 (Homo sapiens, UniProt P10635); experiment: Human CYP2D6 inhibition test; format: biochemical; parameters: purchased BD Gentest 456217; conditions: CYP2D6 7.5 pmol/mL; fluorescence substrate AMMC 1.5 μM; 37° C. 30 minutes
Chain of CYP2D6 (P10635 whole entry): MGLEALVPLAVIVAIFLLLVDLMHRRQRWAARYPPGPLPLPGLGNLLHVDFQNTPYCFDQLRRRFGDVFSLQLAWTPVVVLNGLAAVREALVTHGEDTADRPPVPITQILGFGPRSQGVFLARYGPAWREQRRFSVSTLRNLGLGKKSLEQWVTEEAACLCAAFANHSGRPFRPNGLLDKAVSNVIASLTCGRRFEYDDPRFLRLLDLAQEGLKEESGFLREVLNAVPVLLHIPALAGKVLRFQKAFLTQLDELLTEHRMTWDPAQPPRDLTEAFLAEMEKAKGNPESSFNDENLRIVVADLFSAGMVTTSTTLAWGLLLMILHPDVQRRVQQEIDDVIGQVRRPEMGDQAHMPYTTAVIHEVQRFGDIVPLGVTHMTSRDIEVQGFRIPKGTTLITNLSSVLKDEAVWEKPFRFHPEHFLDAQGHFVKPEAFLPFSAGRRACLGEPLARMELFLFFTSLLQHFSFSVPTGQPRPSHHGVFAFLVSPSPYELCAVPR
Description: Test 3. Human CYP2D6 Inhibition Test
Inhibitory activity evaluation for CYP2D6 was carried out by measuring it in accordance, roughly, with a reference (“Drug Metabolism and Disposition”, 2001, vol. 29, p. 1196-1200).
Final concentrations of the reagents in the enzyme reaction solution were respectively set to CYP2D6=7.5 pmol/mL (manufactured by BD Gentest, Catalog No. 456217), reduced type nicotinamide adenine dinucleotide phosphate (NADPH) regeneration system (0.0081 mM nicotinamide adenine dinucleotide phosphate (NADP+), 0.41 mM glucose-6-phosphate, 0.41 mM MgCl2, 0.4 units glucose-6-phosphate dehydrogenase), and a fluorescence substrate AMMC=1.5 μM, 100 mM potassium phosphate buffer (pH 7.4). Each compound was made into a 50% acetonitrile solution and added to the enzyme reaction solution (acetonitrile final concentration 2.5%). The enzyme reaction was carried out at 37° C. for 30 minutes, the reaction was stopped using a stopping liquid (0.1 M tris(hydroxymethyl)aminomethane (Tris-base):acetonitrile=20:80), and the fluorescence intensity was then measured. The concentration showing 50% inhibition (IC50) was calculated from the thus obtained fluorescence intensity, by defining the enzyme activity at a time of no compound addition as 100%.

[4] = normal male rats, single oral administration 3 mg/kg, 2 hours after administration

Compound	pEC50 [2]	pIC50 [3]	inhibition in vivo at 3 mg/kg [1, 4] [%]	inhibition in vivo at 3 mg/kg ([1]; po, 2 h) [%]
COc1cccc([C@@H](C)NCC2CCN(c3ncc(C(=O)O)cc3Cl)CC2c2ccccc2)c1 (stereo partly drawn) [Example 33, 5-chloro-6-[4-({[(1R)-1-(3-methoxyphenyl)ethyl]amino}methyl)-3-phenylpiperidin-1-yl]nicotinic acid hydrochloride]	7.70	–	29	–
C[C@@H](NCC1CCN(C(=O)Oc2ccc(C(=O)O)cc2)CC1c1ccccc1)c1cccc2ccccc12 (stereo partly drawn) [Example 25, 4-({[4-({[(1R)-1-(1-naphthyl)ethyl]amino}methyl)-3-phenylpiperidin-1-yl]carbonyl}oxy)benzoic acid hydrochloride]	7.89	≤ 4.70	–	17
C[C@@H](NCC1CCN(c2ncc(C(=O)O)cc2Cl)CC1c1ccccc1F)c1cccc2ccccc12 (stereo partly drawn) [Example 32, 5-chloro-6-[3-(2-fluorophenyl)-4-({[(1R)-1-(1-naphthyl)ethyl]amino}methyl)piperidin-1-yl]nicotinic acid hydrochloride]	8.12	–	34	–
C[C@@H](NCC1CN(C(=O)Nc2ccc(C(=O)O)cc2)CCC1c1cccc(F)c1)c1cccc2ccccc12 (stereo partly drawn) [Example 13, 4-({[4-(3-fluorophenyl)-3-({[(1R)-1-(1-naphthyl)ethyl]amino}methyl)piperidin-1-yl]carbonyl}amino)benzoic acid hydrochloride]	8.54	≤ 4.70	–	–
C[C@@H](NCC1CCN(c2cccc(C(=O)O)c2)CC1c1ccccc1)c1cccc2ccccc12 (stereo partly drawn) [Example 34, 3-[4-({[(1R)-1-(1-naphthyl)ethyl]amino}methyl)-3-phenylpiperidin-1-yl]benzoic acid hydrochloride]	8.09	≤ 4.70	–	–
COc1cc(C(=O)O)ccc1NC(=O)N1CCC(c2ccccc2)C(CN[C@H](C)c2cccc3ccccc23)C1 (stereo partly drawn) [Example 3, 3-methoxy-4-({[3-({[(1R)-1-(1-naphthyl)ethyl]amino}methyl)-4-phenylpiperidin-1-yl]carbonyl}amino)benzoic acid]	8.74	≤ 4.70	–	–
C[C@@H](NCC1CCN(c2nc(C(=O)O)cs2)CC1c1ccccc1)c1cccc2ccccc12 (stereo partly drawn) [Example 39, 2-[4-({[(1R)-1-(1-naphthyl)ethyl]amino}methyl)-3-phenylpiperidin-1-yl]-1,3-thiazole-4-carboxylic acid hydrochloride]	8.59	–	23	–
C[C@@H](NCC1CCN(c2ncc(C(=O)O)cc2Cl)CC1c1ccccc1)c1cccc2ccccc12 (stereo partly drawn) [Example 31, 5-chloro-6-[4-({[(1R)-1-(1-naphthyl)ethyl]amino}methyl)-3-phenylpiperidin-1-yl]nicotinic acid hydrochloride]	8.30	–	24	–
C[C@@H](NCC1CCN(c2cccc(C(=O)O)n2)CC1c1ccccc1)c1cccc2ccccc12 (stereo partly drawn) [Example 30, 6-[4-({[(1R)-1-(1-naphthyl)ethyl]amino}methyl)-3-phenylpiperidin-1-yl]pyridine-2-carboxylic acid hydrochloride]	8.26	≤ 4.70	–	–

Further lines, with some results ahead:

pEC50 [2]	pIC50 [3]	Compound	inhibition in vivo at 3 mg/kg [1, 4] [%]	inhibition in vivo at 3 mg/kg ([1]; po, 2 h) [%]
8.42	–	C[C@@H](NCC1CCN(c2c(F)cc(-c3nnn[nH]3)cc2F)CC1c1ccccc1)c1cccc2ccccc12 (stereo partly drawn) [Example 53, (1R)—N-({1-[2,6-difluoro-4-(1H-tetrazol-5-yl)phenyl]-3-phenylpiperidin-4-yl}methyl)-1-(1-naphthyl)ethaneamine hydrochloride]	20	–
7.77	≤ 4.70	C[C@@H](NCC1CCN(c2cc(C(F)(F)F)c(C(=O)O)cn2)CC1c1cccc(F)c1)c1cccc2ccccc12 (some centres unmarked) [Example 98]	–	–
7.96	≤ 4.70	C[C@@H](NCC1CCN(c2c(F)cc(C(=O)O)cc2F)CC1c1ccccc1)c1csc2ccccc12 (some centres unmarked) [Example 87]	–	–
7.85	–	C[C@@H](NCC1CCN(c2ccc(C(=O)O)cn2)CC1c1ccccc1F)c1cccc2ccccc12 (some centres unmarked) [Example 104]	–	–
